The assay has as its system iMSCs. The assay is described as follows: iMSC expansion, seeded at 1000 cells/well, day 10 morphology and cell number. It counts as cell-based.

This note sets out measurements from patent US12359173B2, “Serum-free and xeno-free culture medium for expanding mesenchymal stem cells” (NUWACELL BIOTECHNOLOGIES CO., LTD., priority 2023, dated 2025).

Method: Cryopreserved iMSCs (RC01005, Nuwacell Co., Ltd.) were seeded in 6-well plates at 1000 cells/well in M1 medium to thaw the cells. The medium was replaced 24 h later with 2 ml/well of the following medium: M1; or M2 (5% HPLT) further supplemented with or without one or more growth factors (F: FGF2 (10 ng/ml, Nuwacell Co., Ltd.); P: PDFG-BB (10 ng/ml, Cat. No.: 100-14B-100, Peprotech); T: TGFβ1 (1 ng/ml, Cat. No.: 100-21, Peprotech)) in the absence or presence of hydrocortisone (1 μM, Cat. No.: 4098, Tocris). […] The medium was changed with the same medium every three days. On day 10 of culture, the cells were digested by solase (RP01021, Nuwacell Co., Ltd.) for 3 min and collected, and then centrifugated, and with the supernatant removed, resuspended in the corresponding medium, and the number of iMSC cells was counted by cell viability analyzer (Vi-CELLTMXR, BECKMAN COULTER) (FIG. 5).

For the compound `C[C@]12CCC(=O)C=C1CC[C@@H]1[C@@H]2[C@@H](O)C[C@@]2(C)[C@H]1CC[C@]2(O)C(=O)CO` [hydrocortisone], the “effect of addition on iMSC proliferation” value (Example 5, hydrocortisone 1 μM added to M2 (5% HPLT)) is given as “could promote the iMSC proliferation”.

In the case of heparin sodium, for the setting “Example 13, 4 mg/L dialyzed HSA, 25 μg/ml heparin sodium, FIG. 13”, the “effect of addition to M3 on iMSC growth” value is “could further promote iMSC growth”.
